Reference: patent publication EP2067489B1, “Glyco-molecular imaging method for grade classification of liver fibrosis and its glyco-molecular imaging agent thereof” (Institute of Nuclear Energy Research Atomic Energy Council, priority 2007, dated 2009)

Test: Storage stability at room temperature
Type: physicochemical
Conditions: stability to air and water-deliquescence

O=C(O)CN(CCN1CC(=O)OC(=O)C1)CCN1CC(=O)OC(=O)C1 [DTPA anhydride]
storage time in room temperature: much unstable and easy to water-deliquescent
